Results published in patent publication US20250092065A1, “2-(INDAZOL-5-YL)-6-(PIPERIDIN-4-YL)-1,7-NAPHTHYRIDINE DERIVATIVES AND RELATED COMPOUNDS AS MODULATORS FOR SPLICING NUCLEIC ACIDS AND FOR THE TREATMENT OF PROLIFERATIVE DISEASES” (REMIX THERAPEUTICS INC., priority 2022, published 2025).
Like-named read-outs stand apart in the source and are kept apart here.

Experiments:
HTT mRNA = assay: RT-qPCR splicing assay, HTT mRNA canonical (CJ) and alternative (AJ) junction; type: cell-based, human; settings: Homo sapiens
Procedure: (§1) Compounds described herein were used to modulate RNA transcript abundance in cells. The expression of a target mRNA was measured by detecting the formation of an exon-exon junction in the canonical transcript (CJ). A compound mediated exon-inclusion event was detected by observing an increase in formation of a new junction with an alternative exon (AJ). Real-time qPCR assays were used to detect these splicing switches and interrogate the potency of various compounds towards different target genes. A high-throughput real time quantitative PCR (RT-qPCR) assay was developed to measure these two isoforms of the mRNA (CJ and AJ) for exemplary genes, such as HTT, SMN2, and MYB, together with a control housekeeping gene, GAPDH or GUSB or PPIA, used for normalization. Briefly, the A673 or K562 cell line was treated with various compounds described herein (e.g., compounds of Formula (I)). After treatment, the levels of the HTT, MYB, or SMN2 mRNA targets were determined from each sample of cell lysate by cDNA synthesis followed by qPCR.
(§2) The A673 cell line was cultured in DMEM with 10% FBS. Cells were diluted with full growth media and plated in a 96-well plate (15,000 cells in 100 ul media per well). The plate was incubated at 37° C. with 5% CO2 for 24 hours to allow cells to adhere. An 11-point 3-fold serial dilution of the compounds was made in DMSO then diluted in media in an intermediate plate. Compounds were transferred from the intermediate plate to the cell plate with the top dose at a final concentration of 10 uM in the well. Final DMSO concentration was kept at or below 0.25%. The cell plate was returned to the incubator at 37° C. with 5% CO2 for an additional 24 hours.
(§3) The K562 cell line was cultured in IMDM with 10% FBS. For K562, cells were diluted with full growth media and plated in either a 96-well plate (50,000 cells in 50 uL media per well) or a 384-well plate (8,000-40,000 cells in 45 uL media per well). An 11-point 3-fold serial dilution of the compounds were made in DMSO then diluted in media in an intermediate plate. Compound was transferred from the intermediate plate to the cell plate with the top dose at a final concentration of 10 uM in the well. Final DMSO concentration was kept at or below 0.25%. Final volume was 100 uL for 96-well plate and 50 uL for 384-well plate. The cell plate was then placed in an incubator at 37° C. with 5% CO2 for 24 hours.
(§4) The cells were then gently washed with 50 uL-100 uL cold PBS before proceeding to addition of lysis buffer. 30 uL-50 μL of room temperature lysis buffer with DNAse I (and optionally RNAsin) was added to each well. Cells were shaken/mixed thoroughly at room temperature for 5-10 minutes for lysis to take place and then 3 uL-5 μL of room temperature stop solution was added and wells were shaken/mixed again. After 2-5 minutes, the cell lysate plate was transferred to ice for RT-qPCR reaction setup. The lysates could also be frozen at −80° C. for later use.
(§5) In some cases, a direct lysis buffer was used. An appropriate volume of 3× lysis buffer (10 mM Tris, 150 mM NaCl, 1.5%-2.5% Igepal and 0.1-1 U/uL RNAsin, pH 7.4) was directly added to either K562 or A673 cells in media and mixed by pipetting 3 times. The plates were then incubated at room temperature with shaking/rocking for 20-50 minutes to allow for lysis to take place. After this time, the cell lysate plate was transferred to ice to set up for the RT-qPCR reactions. The lysates could also be frozen at −80° C. for later use.
(§6) To set up 10 uL RT-qPCR reactions, cell lysates were transferred to 384-well qPCR plates containing the master mix according to the table below. The plates were sealed, gently vortexed, and spun down before the run. The volumes were adjusted accordingly in some instances where the reaction was carried in 20 μL. The table below summarizes the components of the RT-qPCR reactions:
(§7) The RT-qPCR reaction was performed using a QuantStudio (ThermoFisher) under the following fast cycling conditions. […]

MYB mRNA = assay: RT-qPCR splicing assay, MYB mRNA canonical (CJ) and alternative (AJ) junction; type: cell-based, human; settings: Homo sapiens
Procedure: as §1, §2, §3, §4, §5, §6, §7

SMN2 mRNA = assay: RT-qPCR splicing assay, SMN2 mRNA; type: cell-based, human; settings: Homo sapiens, canonical junction qPCR panel, Table 4; read-out: SMN2 IC50 (decrease in CJ mRNA levels)
Procedure: as §1, §2, §3, §4, §5, §6, §7

MYB = assay: HiBiT protein abundance assay, MYB (K562 HiBiT knock-in); type: cell-based, human; settings: HiBiT knock-in K562 cells, 24 hours, top dose 10 μM
Procedure: (§8) Compounds described herein were used to screen for effects on quantitative protein abundance using a HiBit assay system (Promega). Quantitative protein abundance was determined by measuring the protein levels of HiBit-tagged protein targets expressed in cell culture via luminescence using the Nano-Glo HiBiT Lytic Detection System, which uses a split complementation assay format to reconstitute NanoBiT enzyme to generate a luminescent signal. A protein abundance assay was developed such that endogenous protein targets could be modified with the HiBiT peptide tag and their abundance could be assessed after compound treatment. Briefly, K562 cell lines containing a HiBiT-modification were treated with various compounds described herein (e.g., compounds of Formulas (I), or (II)). After treatment for 24 hours, the protein abundance of a specific target was determined by measuring luminescence.
(§9) Cells were maintained in IMIDM with 10% FBS. Before the assay, cells were diluted with […] growth media (IMIDM+[…] media) and were seeded in a 384-well plate at a density of 10000 cells/well (for each cell line listed in Table 6). Each compound was prepared as a 10-point 3-fold serial dilution in DMSO with the top dose at a final concentration of 10 μM in the well. Unmodified K562 cells were added at the previously specified density with DMSO to serve as an assay baseline and positive control (PC) and DMSO only with the respective modified cell lines was added to the negative control (NC) columns. Final DMSO concentration was kept at or below 0.25%. Treated cell plates were placed in an incubator at 37° C. with […] for 24 hours. After 24 hours, 25 μL of Complete HiBit Lytic reagent was added to each well at room temperature (e.g. one plate requiring 10 mL Lytic Buffer, 100 μL LgBiT Protein, 200 μL Lytic Substrate), shaken for 5 minutes at 600 RPM, then left to sit for 10 minutes for signal to stabilize before reading on a Spark Cyto plate reader (Tecan) with a 500 ms measurement time.
(§10) To determine compound effects on protein abundance of each target in Table 6, the percent response for each respective cell line was calculated at each compound concentration as follows:
(§11) % response=100*(S−PC)(NC−PC)
(§12) For the normalized response at each concentration, a four-parameter logistical regression was fit to the data and the response was interpolated at the […] to determine a concentration for protein abundance at 50% (IC50) the untreated control.

HTT = assay: HiBiT protein abundance assay, HTT (K562 HiBiT knock-in); type: cell-based, human; settings: HiBiT knock-in K562 cells, 24 hours, top dose 10 μM
Procedure: as §8, §9, §10, §11, §12

Target C = assay: HiBiT protein abundance assay, Target C (K562 HiBiT knock-in); type: cell-based, human; settings: HiBiT knock-in K562 cells, 24 hours, top dose 10 μM
Procedure: as §9, §10, §11, §12

K562 cells = assay: Cell Titer Glo 2.0 cell viability (toxicity) assay, K562; settings: 500 cells/well, 72 hours
[1] = HTT alternative junction mRNA, RT-qPCR, read-out: HTT AJ (increase in AJ mRNA, AC50)
[2] = HTT canonical junction mRNA, RT-qPCR, read-out: HTT CJ (decrease in CJ mRNA levels, IC50)
[3] = canonical junction qPCR panel, Table 4, read-out: HTT IC50 (decrease in CJ mRNA levels)
[4] = MYB alternative junction mRNA, RT-qPCR, read-out: MYB AJ (increase in AJ mRNA, AC50)
[5] = MYB canonical junction mRNA, RT-qPCR, read-out: MYB CJ (decrease in CJ mRNA levels, IC50)
[6] = canonical junction qPCR panel, Table 4, read-out: MYB IC50 (decrease in CJ mRNA levels)
[7] = RT-qPCR, HTT alternative junction mRNA increase, read-out: HTT AJ (increase in alternative junction mRNA, AC50)
[8] = RT-qPCR, HTT canonical junction mRNA decrease, read-out: HTT CJ (decrease in canonical junction mRNA, IC50)
[9] = RT-qPCR, MYB alternative junction mRNA increase, read-out: MYB AJ (increase in alternative junction mRNA, AC50)
[10] = RT-qPCR, MYB canonical junction mRNA decrease, read-out: MYB CJ (decrease in canonical junction mRNA, IC50)

SMILES	IC50 (HTT mRNA; [2]) [nM]	IC50 (HTT mRNA; [3]) [nM]	IC50 (MYB mRNA; [5]) [nM]	IC50 (MYB mRNA; [6]) [nM]	IC50 (SMN2 mRNA) [nM]	IC50 (MYB) [nM]	IC50 (HTT) [nM]	IC50 (Target C) [nM]	IC50 (HTT mRNA; [8]) [nM]	IC50 (MYB mRNA; [10]) [nM]	AC50 (HTT mRNA; [1]) [nM]	AC50 (MYB mRNA; [4]) [nM]	Effect of Exemplary Compounds on Cell Viability, K562 (K562 cells)	AC50 (HTT mRNA; [7]) [nM]	AC50 (MYB mRNA; [9]) [nM]
Cc1cn2cc(-c3ccc4nc(C5CCNCC5)ccc4n3)c(O)c(C)c2n1 [Compound 151]	100 to 1000	100 to 1000	100 to 1000	100 to 1000	100 to 1000	100 to 1000	100 to 1000	100 to 1000			100 to 1000	100 to 1000			
Cn1cc2cc(-c3ccc4cc(C5CCNCC5)ccc4n3)c(O)c(F)c2n1 [Compound 241]	< 100		< 100			< 100	< 100	< 100			< 100	< 100	A (A represents <100 nM)		
CNC(=O)c1nc(-c2cc3cn(C)nc3c(C)c2O)nc2ccc(N3CCNCC3)cc12 [Compound 501, 2-(6-hydroxy-2,7-dimethylindazol-5-yl)-N-methyl-6-(piperazin-1-yl)quinazoline-4-carboxamide]						< 100	100 to 1000	100 to 1000					A (A represents <100 nM)		
COc1nc(-c2ncc3cc(N4C[C@@H](C)N[C@@H](C)C4)ccc3n2)cn2cc(C)nc12 [Compound 838]		> 10000		100 to 1000	< 100				> 10000	100 to 1000			C (C represents 1000-9999 nM)	> 10000	100 to 1000

Now from value to molecule, other results behind:

IC50 (HTT mRNA; [2]) [nM]	IC50 (HTT mRNA; [3]) [nM]	IC50 (MYB mRNA; [5]) [nM]	IC50 (MYB mRNA; [6]) [nM]	IC50 (SMN2 mRNA) [nM]	IC50 (MYB) [nM]	IC50 (HTT) [nM]	IC50 (Target C) [nM]	IC50 (HTT mRNA; [8]) [nM]	IC50 (MYB mRNA; [10]) [nM]	SMILES	AC50 (HTT mRNA; [1]) [nM]	AC50 (MYB mRNA; [4]) [nM]	Effect of Exemplary Compounds on Cell Viability, K562 (K562 cells)	AC50 (HTT mRNA; [7]) [nM]	AC50 (MYB mRNA; [9]) [nM]
	100 to 1000		1000 to 10000	100 to 1000				100 to 1000	1000 to 10000	Cc1nc2c(F)cc(-c3ncc4cc(N5C[C@@H](C)N[C@@H](C)C5)ccc4n3)cn2c1F [Compound 837, 2-{3,8-difluoro-2-methylimidazo[1,2-a]pyridin-6-yl}-6-[(3R,5S)-3,5-dimethylpiperazin-1-yl]quinazoline]			C (C represents 1000-9999 nM)	1000 to 10000	1000 to 10000
	> 10000		1000 to 10000	100 to 1000				> 10000	1000 to 10000	C[C@H]1CN(c2ccc3nc(-c4cc(F)c5nn(C)c(F)c5c4)ncc3c2)C[C@H](C)N1 [Compound 924]			C (C represents 1000-9999 nM)	1000 to 10000	1000 to 10000
	1000 to 10000		1000 to 10000	100 to 1000				1000 to 10000	1000 to 10000	C[C@@H]1CN(c2ccc3nc(-c4cc(F)c5nn(C)c(F)c5c4)ncc3c2)C[C@H](C)N1 [Compound 925]			C (C represents 1000-9999 nM)	100 to 1000	1000 to 10000
